Assay results taken from ChEMBL document CHEMBL1144454, “Design, synthesis, and biological activities of pyrrolylethanoneamine derivatives, a novel class of monoamine oxidases inhibitors” (J Med Chem, 2005).

Legend:
[1] = Selectivity for bovine Monoamine oxidase A as ratio of Ki(MAO-B)/Ki(MAO-A)
[2] = target: Amine oxidase [flavin-containing] B (Bos taurus) (UniProt P56560)
[3] = target: Amine oxidase [flavin-containing] A (Bos taurus) (UniProt P21398); assay: Inhibitory concentbovineion for bovine Monoamine oxidase A

Amine oxidase [flavin-containing] B (Bos taurus), sequence (P56560 whole entry, looked up): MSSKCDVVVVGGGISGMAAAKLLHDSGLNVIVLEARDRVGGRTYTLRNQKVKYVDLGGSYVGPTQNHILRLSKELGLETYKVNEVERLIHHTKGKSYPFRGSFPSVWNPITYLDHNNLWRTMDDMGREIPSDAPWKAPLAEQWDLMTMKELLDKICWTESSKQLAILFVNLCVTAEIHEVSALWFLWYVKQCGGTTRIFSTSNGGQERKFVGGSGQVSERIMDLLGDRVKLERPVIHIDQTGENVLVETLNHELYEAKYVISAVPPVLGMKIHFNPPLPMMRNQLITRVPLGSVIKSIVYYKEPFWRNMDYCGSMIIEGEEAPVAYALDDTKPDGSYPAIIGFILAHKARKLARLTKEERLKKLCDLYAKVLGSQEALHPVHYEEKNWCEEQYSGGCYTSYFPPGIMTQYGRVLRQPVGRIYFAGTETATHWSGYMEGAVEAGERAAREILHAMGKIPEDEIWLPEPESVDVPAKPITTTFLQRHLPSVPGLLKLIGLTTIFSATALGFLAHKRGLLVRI

SMILES	A-selectivity [1]	Ki [2] [µM]	Ki [3] [µM]
CN(C)C(C(=O)c1cccn1C)c1ccccc1 (stereo not drawn)	500	875	1.75
Cn1cccc1C(=O)C(c1ccccc1)N1CCOCC1 (stereo not drawn)	> 286	> 100	0.35
Cn1cccc1C(O)C(c1ccccc1)N1CCCCC1 (single isomer, unassigned; (-)) [listing 1 of 2 here]	–	17.2	55
Cn1cccc1C(=O)C(c1ccccc1)N1CCCC1 (racemic)	–	600	0.0075
Cn1cccc1C(=O)C(c1ccccc1)N1CCCCC1 (racemic)	5210	500	0.096
Cn1cccc1C(O)C(c1ccccc1)N1CCCCC1 (stereo in doubt) [listing 1 of 2 here]	77	–	–
Cn1cccc1C(O)C(c1ccccc1)N1CCCCC1 (racemic; form 1) [listing 1 of 2 here]	0.29	–	–
Cn1cccc1C(=O)CN1CCCCC1	–	15	0.007
Cn1cccc1C(=O)[C@H](c1ccccc1)N1CCCCC1	4100	410	0.1
Cn1cccc1C(O)CN1CCCCC1 (stereo not drawn)	47	23.9	0.51
Cn1cccc1C(O)C(c1ccccc1)N1CCCCC1 (single isomer, unassigned; form 1) [listing 1 of 2 here]	–	> 10	0.52
Cn1cccc1C(=O)[C@H](c1ccccc1)N1CCCC1	–	500	0.0095
Cn1cccc1C(=O)C(c1ccccc1)N1CCN(Cc2ccccc2)CC1 (stereo not drawn)	11	10	0.93
Cn1cccc1C(O)C(c1ccccc1)N1CCCCC1 (single isomer, unassigned; form 2) [listing 1 of 2 here]	–	1.24	7
CCOc1ccc(NC(C(=O)c2cccn2C)c2ccccc2)cc1 (stereo not drawn)	> 121	> 100	0.83
Cn1cccc1C(=O)C(N)c1ccccc1 (stereo not drawn)	442	42	0.095

SMILES	A-selectivity [1]	Ki [2] [µM]	Ki [3] [µM]
Cn1cccc1C(O)C(c1ccccc1)N1CCCCC1 (racemic; form 1) [listing 2 of 2 here]	–	9.22	31
Cn1cccc1C(=O)C(c1ccccc1)N1CCSCC1 (stereo not drawn)	> 1000	> 100	0.1
Cn1cccc1C(=O)[C@H](c1ccccc1)N1CCSCC1	1220	100	0.082
Cn1cccc1C(O)C(c1ccccc1)N1CCCCC1 (racemic; form 2) [listing 1 of 2 here]	–	140	1
Cn1cccc1C(=O)[C@@H](c1ccccc1)N1CCCC1	–	700	0.0035
CN1CCN(C(C(=O)c2cccn2C)c2ccccc2)CC1 (stereo not drawn)	> 288	> 100	0.347
Cn1cccc1C(=O)[C@@H](c1ccccc1)N1CCSCC1	5260	400	0.076
Cn1cccc1C(O)C(c1ccccc1)N1CCCCC1 (racemic; form 2) [listing 2 of 2 here]	140	–	–
Cn1cccc1C(O)C(c1ccccc1)N1CCCCC1 (stereo in doubt) [listing 2 of 2 here]	–	46	0.6
Cn1cccc1C(O)C(c1ccccc1)N1CCCCC1 (single isomer, unassigned; (-)) [listing 2 of 2 here]	0.31	–	–
Cn1cccc1C(=O)[C@@H](c1ccccc1)N1CCCCC1	–	–	0.01
CC(C(=O)c1cccn1C)N1CCCCC1 (stereo not drawn)	–	36	0.038
Cn1cccc1C(=O)C(c1ccccc1)N1C(=O)c2ccccc2C1=O (stereo not drawn)	> 123	> 100	0.81
Cn1cccc1C(O)C(c1ccccc1)N1CCCCC1 (single isomer, unassigned; form 1) [listing 2 of 2 here]	> 19	–	–
Cn1cccc1C(O)C(c1ccccc1)N1CCCCC1 (single isomer, unassigned; form 2) [listing 2 of 2 here]	0.18	–	–
